Where no end group is shown, it is not given here.
Key:
B cinerea = test: Effect of ions on antifungal activity (synthetic growth medium); type: cell-based, Botrytis cinerea; settings: for increase of the IC50 values with CaCl2 at 1 mM: reference medium + 1 mM CaCl2; for effect of KCl at 10 mM on the dose-response curves: reference medium + 10 mM KCl; for increase of the IC50 values with KCl at 50 mM: reference medium + 50 mM KCl
[1] = Chitin micro-column binding; settings: washed at pH 7, desorbed with 100 mM acetic acid (pH 2.8), SDS-PAGE
Phytophthora infestans = type: cell-based
[2] = test system: Verticillium dahliae MUCL 19210; type: cell-based
[3] = test system: Venturia inaegualis MUCL 15927; type: cell-based
[4] = test system: Cercospora beticola strain K897; type: cell-based
[5] = test system: Alternaria brassicola MUCL 20297; type: cell-based
[6] = test system: Colletotrichum lindemuthianum MUCL 9577; type: cell-based
[7] = test system: Ascochyta pisi MUCL 30164; type: cell-based
[8] = test system: Botrytis cinerea MUCL 30158; type: cell-based
[9] = test system: Saccharomyces cerevisiae JRY188; settings: S cerevisiae
Experimental: Routinely, tests were performed with 20 μl of a (filter-sterilized) test solution and 80 μl of a fungal spore suspension (2×10^4 spores/ml) or mycelium fragments in either half strength potato dextrose broth (medium A) or half strength potato dextrose broth with CaCl2 and KCl added to final concentrations of 1 mM and 50 mM respectively (medium B). For experiments on the antagonistic effect of cations, a synthetic growth medium was used instead of Potato Dextrose Broth. […] Control microcultures contained 20 μl of sterile distilled water and 80 μl of the fungal spore suspension.
Unless otherwise stated the test organism was Fusarium culmorum (strain IMI 180420) and incubation was carried out at 25° C. for 48 hours. Percent growth inhibition is defined as 100 times the ratio of the corrected absorbance of the control microculture minus the corrected absorbance of the test microculture over the corrected absorbance at 595 nm of the control microculture. The corrected absorbance values equal the absorbance at 595 nm of the culture measured after 48 hours minus the absorbance at 595 nm measured after 30 min. […] The antifungal activity (units per ml) is calculated as 50 times the dilution factor of a test solution at which 50% growth inhibition is obtained under the given assay conditions.
Antibacterial activity was measured microspectrophotometrically as follows. […]

[10] = test system: Trichoderma viride (K1127); type: cell-based
[11] = test system: Pyrenophora tritici-repentis MUCL 30217; type: cell-based
[12] = test system: Nectria haematococca Collection Van Etten 160-2-2; type: cell-based
[13] = test system: Fusarium oxysporum f.sp. lycopersici MUCL 909; type: cell-based
[14] = test system: Penicillium digitatum (K0879); type: cell-based
[15] = test system: Pyricularia oryzae MUCL 30166; type: cell-based
[16] = test system: Fusarium culmorum IMI 180420; type: cell-based
Fusarium culmorum = type: physicochemical
Experimental: Tests for antifungal activity were performed with 20 μl samples diluted five-fold with growth medium containing Fusarium culmorum spores, according to the assay method given in Example 1. untreated control samples consisted of the test proteins at 500 μg/ml in 10 mM sodium phosphat buffer (pH 7). For digestions, different proteases were added at 100 μg/ml and incubated at 37° C. for 16 hours. Heat stability tests were performed by heating aliquots of the test proteins for 10 minutes at different temperatures up to 100° C. pH stability was tested by incubation of test proteins for 1 hour in either 20 mM glycine-HCl (pH 2) or glycine-NaOH (pH 11) and subsequent dialysis for 16 hours against 10 mM sodium phosphate buffer (pH 7) using benzoylated cellulose tubing. Reduction of dishulphide bridges was done by addition of DTE at 30 mM and Tris-HCl (pH 8.6) at 300 mM. The reagents were removed by reversed-phase chromatography. For digestions, different proteases were added at 200 μg/ml and incubated at 37° C. for 3 hours.

[17] = test system: Verticillium albo-atrum (K0937); type: cell-based
[18] = test system: Fusarium oxysporum f.sp. pisi IMI 236441; type: cell-based
plant pathogenic fungi = type: cell-based
Phoma betae MUCL 9916 = type: cell-based
[19] = test system: Rhizoctonia solani CBS 207-84; type: cell-based

## Ac-AMP1: Antimicrobial protein from Amaranthus caudatus seeds, 29 residues, dimer of two identical 3 kDa subunits (SEQ ID NO: 5) (VGECVRGRCPSGMCCSQFGYCGKGPKYCG; cysteine pairing not given here; also: dimer of two identical subunits)
B cinerea
  increase of the IC50 values with CaCl2 at 1 mM: five to six-fold
  effect of KCl at 10 mM on the dose-response curves: did not significantly affect the dose-response curves
  increase of the IC50 values with KCl at 50 mM: about three-fold
[1]
  affinity toward chitin: exhibit affinity toward chitin
Phytophthora infestans
  IC50: 12 µg/mL

## Ac-AMP2: Antimicrobial protein from Amaranthus caudatus seeds, 30 residues, Ac-AMP1 plus a carboxyl-terminal arginine (SEQ ID NO: 6) (VGECVRGRCPSGMCCSQFGYCGKGPKYCGR; not fully specified; cysteine pairing not given here)
[2]
  IC50: 5 µg/mL
[3]
  IC50: 3 µg/mL
B cinerea
  increase of the IC50 values with CaCl2 at 1 mM: five to six-fold
  effect of KCl at 10 mM on the dose-response curves: did not significantly affect the dose-response curves
  increase of the IC50 values with KCl at 50 mM: about three-fold
[4]
  IC50: 0.8 µg/mL
[1]
  affinity toward chitin: exhibit affinity toward chitin
[5]
  IC50: 4 µg/mL
[6]
  IC50: 8 µg/mL
[7]
  IC50: 8 µg/mL
[8]
  IC50: 8 µg/mL

## Ca-AMP1: Antimicrobial protein purified from seeds of Capsicum annuum (SEQ ID NO: 15) (QEQCGNQAGGRACANRLCCSQYGYCGSTRAYCGVGCQSNCGR)
[9]
  IC50: 30 µg/mL
[10]
  IC50 (μg/ml) Medium A: 200 µg/mL
  IC50 (μg/ml) Medium B: >500 µg/mL
[2]
  IC50 (μg/ml) Medium A: 6 µg/mL
  IC50 (μg/ml) Medium B: >500 µg/mL
[11]
  IC50 (μg/ml) Medium A: 70 µg/mL
  IC50 (μg/ml) Medium B: >500 µg/mL
[12]
  IC50 (μg/ml) Medium A: 4 µg/mL
  IC50 (μg/ml) Medium B: >500 µg/mL
[13]
  IC50 (μg/ml) Medium A: 300 µg/mL
  IC50 (μg/ml) Medium B: >500 µg/mL
[14]
  IC50 (μg/ml) Medium B: >500 µg/mL
[15]
  IC50 (μg/ml) Medium A: 5 µg/mL
  IC50 (μg/ml) Medium B: >500 µg/mL
[4]
  IC50 (μg/ml) Medium B: 200 µg/mL
[1]
  affinity toward chitin: exhibits affinity to chitin
[16]
  IC50 (μg/ml) Medium A: 4 µg/mL
  IC50 (μg/ml) Medium B: >500 µg/mL
  morphological changes in partially inhibited fungal spores: severe branching of the emerging hyphal tips
[5]
  IC50 (μg/ml) Medium B: >500 µg/mL
Fusarium culmorum; chymotrypsin digestion, 37° C.
  antifungal activity after chymotrypsin treatment: no affect on activity
Fusarium culmorum; heating for 10 minutes at different temperatures up to 100° C.
  antifungal activity after heat treatment: resistant to heat treatment at up to 80 °C for 10 minutes
Fusarium culmorum; pronase E digestion, 37° C.
  reduction of antifungal activity after pronase E treatment: at least 10 fold
Fusarium culmorum; proteinase K digestion, 37° C.
  reduction of antifungal activity after proteinase K treatment: at least 10 fold
Fusarium culmorum; reduction by DTE / dithiothreitol
  antifungal activity after reduction of disulphide bonds: completely abolished the antifungal activity
Fusarium culmorum; trypsin digestion, 37° C.
  reduction of antifungal activity after trypsin treatment: 2 fold
[6]
  IC50 (μg/ml) Medium A: 50 µg/mL
  IC50 (μg/ml) Medium B: >500 µg/mL
[17]
  IC50 (μg/ml) Medium B: >500 µg/mL
[18]
  IC50 (μg/ml) Medium A: >500 µg/mL
  IC50 (μg/ml) Medium B: >500 µg/mL
[7]
  IC50 (μg/ml) Medium B: >500 µg/mL
Plant pathogenic fungi
  number of pathogenic fungi with IC50 value below 10 μg/ml: 10 of the fungi
[8]
  IC50 (μg/ml) Medium B: >500 µg/mL
Phoma betae MUCL 9916
  IC50 (μg/ml) Medium A: 300 µg/mL
  IC50 (μg/ml) Medium B: >500 µg/mL
[19]
  IC50 (μg/ml) Medium A: 8 µg/mL
  IC50 (μg/ml) Medium B: >500 µg/mL

— patent US6521590B1, “Biocidal proteins” (priority 1991, dated 2003)
